Experimental data published in the CheMixHub ionic liquid set.

Test: xn = mol fraction of the nth substance listed

CO + CC[n+]1ccn(C)c1.N#C[S-]
100 kPa, x2 = 0
Conditions	viscosity [mPa·s]
298.15 K	0.54
318.15 K	0.43

CCCC[n+]1ccn(C)c1.CCOS(=O)(=O)[O-] + CC[n+]1ccn(C)c1.O=S(=O)([N-]S(=O)(=O)C(F)(F)F)C(F)(F)F
298.15 K, 100 kPa
Conditions	viscosity [mPa·s]
x2 = 0	255.2
x2 = 0.5013	87.6
x2 = 0.7113	57.11

CC[n+]1ccn(C)c1.F[B-](F)(F)F + CC[n+]1ccn(C)c1.O=S(=O)([N-]S(=O)(=O)C(F)(F)F)C(F)(F)F
100 kPa, x2 = 0
Conditions	electrical conductivity [S/m]	viscosity [mPa·s]
243.15 K	0.026	–
248.15 K	0.043	–
253.15 K	0.066	308
258.15 K	0.096	–
263.15 K	0.135	152
268.15 K	0.184	–
273.15 K	0.243	85.2
278.15 K	0.313	–
283.15 K	0.395	52.4
288.15 K	0.488	–
293.15 K	0.594	34.6
298.15 K	0.712	–
303.15 K	–	24.2
313.15 K	–	17.8
323.15 K	–	13.5
333.15 K	–	10.6

CO + CC[n+]1ccn(C)c1.O=S(=O)([N-]S(=O)(=O)C(F)(F)F)C(F)(F)F
100 kPa, x1 = 1
Conditions	viscosity [mPa·s]
298.15 K	0.55
308.15 K	0.48
318.15 K	0.43

Cc1cnc[nH]1 + CC[n+]1ccn(C)c1.[Cl-]
101.33 kPa, x2 = 0.667
Conditions	viscosity [mPa·s]
303.15 K	326
313.15 K	151.3
323.15 K	84.8
333.15 K	51.8
343.15 K	32.73
353.15 K	22.56

CO + CC[n+]1ccn(C)c1C.F[B-](F)(F)F
Conditions	viscosity [mPa·s]
308.15 K, 101.3 kPa, x2 = 0	0.467

CC[n+]1ccn(C)c1.F[B-](F)(F)F + CN(C)C=O
101 kPa
Conditions	viscosity [mPa·s]
303.15 K, x2 = 0.2016	16.52
313.15 K, x2 = 0	20.41
313.15 K, x2 = 0.3987	7.35
313.15 K, x2 = 0.5005	5.397
313.15 K, x2 = 0.7997	1.806
323.15 K, x2 = 0	15.35
323.15 K, x2 = 0.2994	7.73
323.15 K, x2 = 0.5005	4.475
323.15 K, x2 = 0.6004	3.226
323.15 K, x2 = 0.8999	1.01

CC[n+]1ccn(C)c1.COP(=O)([O-])OC + CO
101 kPa
Conditions	viscosity [mPa·s]
298.15 K, x2 = 0.598	20.62
318.15 K, x2 = 0.799	3.265
328.15 K, x2 = 0.399	20.82
333.15 K, x2 = 0.399	18.06

CC[n+]1ccn(C)c1.F[B-](F)(F)F + CO
viscosity [mPa·s], 101 kPa
Conditions	x1 = 0.0999	x1 = 0.2	x1 = 0.3	x1 = 0.3996	x1 = 0.5005	x1 = 0.5973	x1 = 0.7011	x1 = 0.8013	x1 = 0.8995	x1 = 1
303.15 K	0.945	1.6	2.45	3.62	5.25	7.32	10.4	14.5	20	28
313.15 K	0.822	1.36	2.08	3.03	4.34	5.96	8.24	11.2	15.1	20.4
323.15 K	0.718	1.19	1.79	2.6	3.67	4.96	6.82	8.97	11.7	15.3
333.15 K	0.636	1.06	1.6	2.3	3.24	4.25	5.74	7.47	9.43	12.1

CC[n+]1ccn(C)c1.O=S(=O)([N-]S(=O)(=O)C(F)(F)F)C(F)(F)F + CO
100 kPa
Conditions	viscosity [mPa·s]
298.15 K, x2 = 0.5988	6.44
308.15 K, x2 = 0.4005	9.17
308.15 K, x2 = 0.8978	1.32
313.15 K, x2 = 0.4005	8.11
313.15 K, x2 = 0.5088	6.09
313.15 K, x2 = 0.6909	3.44
318.15 K, x2 = 0.1965	11.67
323.15 K, x2 = 0.7961	1.82

CC[n+]1ccn(C)c1.O=S(=O)([N-]S(=O)(=O)C(F)(F)F)C(F)(F)F + COC(=O)OC
viscosity [mPa·s], 101.3 kPa
Conditions	288.15 K	293.15 K	298.15 K	303.15 K	308.15 K	313.15 K
x1 = 0.00265	0.69	0.644	0.604	0.567	0.534	0.504
x1 = 0.005572	0.717	0.67	0.627	0.588	0.554	0.523
x1 = 0.006266	0.73	0.681	0.637	0.599	0.563	0.532
x1 = 0.006515	0.73	0.682	0.637	0.598	0.563	0.531
x1 = 0.008405	0.748	0.698	0.653	0.612	0.576	0.543
x1 = 0.01068	0.778	0.724	0.676	0.634	0.596	0.562
x1 = 0.01231	0.795	0.74	0.691	0.648	0.609	0.573
x1 = 0.01323	0.813	0.757	0.707	0.662	0.623	0.587
x1 = 0.01407	0.821	0.763	0.713	0.668	0.628	0.591
x1 = 0.01462	0.823	0.766	0.716	0.671	0.63	0.594
x1 = 0.01829	0.861	0.801	0.747	0.699	0.656	0.618
x1 = 0.01968	0.873	0.812	0.757	0.708	0.664	0.626
x1 = 0.02012	0.879	0.817	0.762	0.713	0.669	0.63
x1 = 0.02014	0.878	0.816	0.76	0.712	0.667	0.628
x1 = 0.02562	0.928	0.861	0.804	0.751	0.704	0.662
x1 = 0.03021	0.956	0.886	0.824	0.769	0.72	0.676
x1 = 0.03102	0.964	0.893	0.83	0.774	0.725	0.68
x1 = 0.03106	0.961	0.89	0.828	0.773	0.723	0.68
x1 = 0.03348	0.982	0.91	0.846	0.79	0.739	0.694
x1 = 0.03766	1.018	0.943	0.877	0.818	0.765	0.718
x1 = 0.04567	1.086	1.005	0.934	0.871	0.814	0.764
x1 = 0.04728	1.111	1.029	0.945	0.881	0.824	0.773
x1 = 0.05348	1.15	1.064	0.988	0.92	0.86	0.807
x1 = 0.05932	1.205	1.113	1.033	0.962	0.898	0.841
